PMC8490515, “Neuromedin B receptor stimulation of Cav3.2 T-type Ca^2+ channels in primary sensory neurons mediates peripheral pain hypersensitivity” (Theranostics, 2021)
Entries after “also recorded” stand apart in the source; their conditions may differ.

Columns and labels:
[1] = system: Nmb-induced mechanical hypersensitivity in mice; experiment: Nmb-induced mechanical hypersensitivity, effect of pretreatment (Figure 7C); assay type: in vivo, mouse; settings: intra-TG TTA-P2 1 nmol prior to 1 nmol Nmb; 1 h; n = 8 - 10
Protocol: Mice were housed on a 12 h light/dark cycle, maintained in a humidity- and temperature-controlled room with water available ad libitum and were acclimated to the experimenter for 2 d before the first behavioural observations. Experimenters were blinded to the treatment or genotypes of the mice. As described previously, [31], an Orofacial Stimulation Test (Ugo Basile, Italy) was used for the measurement of hypersensitivity to the mechanical stimulation of the trigeminal area. Briefly, the mice initially underwent one week of adaptation trainings after a 12 h fasting food period. Each mouse was then placed in a cage in which there was an Orofacial Stimulation Test system. […] The contact number and total duration of time the mouse spent acquiring the reward were analyzed with the ORO software.
For experiments that several time points are needed to be checked in 24 h, von Frey test was used, as orofacial stimulation test can be checked only once a day, [32]. […] Mechanical hypersensitivity was assessed as described in previous studies, [33]. In brief, the threshold was assessed with a set of von Frey hairs (0.02-2.56 g, Stoelting) applied to the whisker pad in an ascending series of trials, with three separate von Frey stimulations applied per series. The threshold was determined when mice moved their heads away briskly and strongly from at least one of the three stimuli. […]

[2] = system: CFA-induced mechanical allodynia in mice; experiment: CFA-induced inflammatory pain, mechanical allodynia; assay type: in vivo, mouse; settings: rofecoxib 10 mg/kg (legend: 1 mg/kg, subcutaneous); 1 h; 2 d after CFA; n = 7 - 9
Protocol: For experiments that several time points are needed to be checked in 24 h, von Frey test was used, as orofacial stimulation test can be checked only once a day, [32]. For the von Frey test, the mice were placed in metal mesh boxes and allowed 30 min for habituation before examination. Mechanical hypersensitivity was assessed as described in previous studies, [33]. In brief, the threshold was assessed with a set of von Frey hairs (0.02-2.56 g, Stoelting) applied to the whisker pad in an ascending series of trials, with three separate von Frey stimulations applied per series. The threshold was determined when mice moved their heads away briskly and strongly from at least one of the three stimuli. Dixon's up-down method was used to determine the 50% probability of escape threshold. For thermal test, a heat stimulus was applied to the maxillary whisker pad skin by radiant heat (IITC Life Science). Heat sensitivity was expressed as head-withdrawal latency (HWL). The radiant heat intensity was adjusted so that basal HWL is between 10-15 s, with a cut-off of 18 s to prevent tissue damage. Chronic inflammatory pain was induced by subcutaneous injection of 20 μL of complete Freund's adjuvant (CFA) into the left side of the buccal pad. […]

[3] = target: Human neuromedin B receptor expressed in HEK293 cells (human) (UniProt P28336)
Chain of Human neuromedin B receptor expressed in HEK293 cells (human) (P28336 whole entry): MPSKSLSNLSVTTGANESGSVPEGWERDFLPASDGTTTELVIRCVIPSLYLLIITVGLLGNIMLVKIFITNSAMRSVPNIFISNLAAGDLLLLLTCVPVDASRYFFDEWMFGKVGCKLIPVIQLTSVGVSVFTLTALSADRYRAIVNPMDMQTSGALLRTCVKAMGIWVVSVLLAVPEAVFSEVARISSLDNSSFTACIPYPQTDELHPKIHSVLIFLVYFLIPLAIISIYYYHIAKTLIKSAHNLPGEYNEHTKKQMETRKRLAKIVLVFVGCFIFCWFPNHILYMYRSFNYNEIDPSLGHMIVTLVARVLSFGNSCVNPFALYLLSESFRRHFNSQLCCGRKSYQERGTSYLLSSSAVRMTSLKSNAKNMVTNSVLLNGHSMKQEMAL

## CC1(C)C[C@@H](CN2CCC(F)(CNC(=O)c3cc(Cl)cc(Cl)c3)CC2)CCO1 [TTA-P2]
[1]
  effect on Nmb-induced mechanical hypersensitivity: significantly attenuated mechanical hypersensitivity

## CS(=O)(=O)c1ccc(C2=C(c3ccccc3)C(=O)OC2)cc1 [rofecoxib]
[2]
  CFA-induced mechanical allodynia: reversed; also recorded: reduced the mechanical allodynia

## Neuromedin B (peptide)
[3]
  increase of Cav3.2 channel currents in HEK293 cells co-expressing human NmbR and Cav3.2, whole-cell patch clamp, dose-response of Nmb, EC50: 0.0476 µM
